PMC12239085, “Silver(I) Ions Bridging Oxadiazole-2-thione Derivatives with Mitochondriotropic Agents: A Promising Strategy for Potent Anticancer Chemotherapy” (Inorganic Chemistry, 2025)
Values joined by “and” are separate entries in the source; they are usually repeats but may differ in a detail not shown here. Equal entries are not always repeated.

Tests used:
MCF-7 cells [1] = assay: AO/EB staining detection of apoptotic cells; assay type: cell-based, human; settings: 48 h; for percentage of apoptotic cells: MCF-7, IC50 values, untreated 11.7 ± 2.8%
Protocol: Apoptotic MCF-7 cells were quantified and characterized using the AO/EB staining assay under fluorescence microscopy, and the results were correlated with previously observed morphological changes in the cells. The type of cell death was evaluated after incubation with complexes 1–5 for 48 h. This assay detects nuclear changes based on differences in membrane integrity between live and apoptotic cells. The fluorescent EB dye stains red only those cells that have lost membrane integrity, while the fluorescent AO dye stains both live and dead cells green. , Untreated MCF-7 cells display green radiation emitting nuclei. The percentage of apoptosis in untreated cells was calculated as 11.7 ± 2.8%. In apoptotic cells, varying degrees of changes are observed. Early stages of apoptosis are indicated by greenish-yellow fluorescent nuclei or green-yellow fragments, while late stages are characterized by orange fluorescence or the presence of orange fragments.
The MCF-7 cells were seeded into a 24-well plate (70,000 cells per well) and cultured at 37 °C for 24 h. […] Control and treated cells were collected after 48 h, the cells were harvested, washed twice with PBS and centrifuged. Twenty-five μL of cell suspension in PBS were incubated with 50 μg/mL AO and 50 μg/mL EB solution. Then, the cells were mixed gently and 10 μL of cells in suspension was placed on a glass slide and a coverslip was placed over it. At random, 300 cells were immediately observed in a fluorescent microscope (Optika inverted fluorescence microscope) and examined at ×60 magnification. ,

MCF-7 cells [2] = assay: Cell cycle arrest, flow cytometry; assay type: cell-based, human; settings: for cell population in sub-G1 phase / cell population in S phase / cell population in G0/G1 phase: MCF-7, IC50 values, 48 h; for cell population in sub-G1 phase: untreated 5.1%; for cell population in S phase: untreated 9.4%; for cell population in G0/G1 phase: untreated 38.8%
Protocol: The MCF-7 cells were seeded into a 24-well plate (70,000 cells per well) and cultured at 37 °C for 24 h. […] For each sample, 10,000 events were recorded. The resulting DNA histograms were drawn and quantified using the FlowJo software (version FlowJo X 10.0.7r2). This assay was performed as reported previously. ,–

MCF-7 cells [3] = assay: Mitochondrial membrane permeabilization (MMP) assay; assay type: cell-based, human; settings: MCF-7, IC50 values, 48 h
Text: The assay relies on the fluorescence of a cationic hydrophobic dye, which accumulates in the mitochondrial membrane. Any quenching of the dye’s emitted fluorescence is attributed to the disruption of the mitochondrial membrane, resulting in the release of cytochrome C into the cytosol. ,− The percentage of fluorescence quenching in MCF-7 cells treated with compounds 1–5 is up to 20.7%, with the specific values being 20.0% (1), 20.7% (2), 2.9% (3), 5.1% (4), and 9.6% (5). […] Consequently, cell morphology, AO/EB staining, cell cycle arrest and MMP studies indicate that compounds 1–5 induce apoptosis in MCF-7 cells, primarily through direct or indirect interaction with DNA.
The MMP assay was conducted using the ″Mitochondria Membrane Potential Kit for Microplate Readers″ (MAK147), purchased from Sigma-Aldrich. MCF-7 cells were treated with 1–5 at their IC50 concentration. Fluorescence intensity was measured at an excitation wavelength of λex = 540 nm and an emission wavelength of λem = 590 nm. The experimental results included fluorescence intensities from the treated and untreated cell solutions. ,–

calf thymus (CT)-DNA [4] = assay: CT-DNA binding, UV absorption spectroscopy; settings: for binding constant K b toward CT-DNA: UV absorbance at 300–310 nm, CT-DNA 10–100 μΜ; for percentage of hyperchromism: UV spectra of CT-DNA with gradual additions of complex
Protocol: In order to elucidate the mechanism of action of compounds 1–5 against MCF-7 cells, their interaction with CT-DNA was investigated using UV absorption and fluorescence spectroscopy. The UV absorption spectra of compounds 1–5 were recorded both in the presence and absence of CT-DNA (Figure S27). […] The calculated K b values for 1–5 are (10.5 ± 1.8) × 10^4 (1), (6.3 ± 0.6) × 10^4 (2), (11.3 ± 1.6) × 10^4 (3), (7.5 ± 1.0) × 10^4 (4) and (10.2 ± 1.1) × 10^4 (5) M^–1, respectively.
For the experiments of titration, UV spectra of CT-DNA in buffer solution in the absence and presence of 1–5 at r values of 0–0.13 (r = [complex]/[DNA], [DNA] = 10^–4 M) were recorded. ,− In order to determine the constant K b value, UV spectra of 1–5 in the absence and presence of CT-DNA at r values 1–0.1 ([complex] = 10 μM, [CT DNA] = 10–100 μM) were investigated.^24,26–30 The K b value is obtained from the ratio of the slope to the y-intercept in plots [DNA]/(εa–εf) versus [DNA] (e a = A obsd/[compound], e f = the extinction coefficient for the free compound). ,−

calf thymus (CT)-DNA [5] = assay: CT-DNA-EB fluorescence displacement; assay type: binding; settings: for quenching of fluorescence intensity of EB-DNA at 588 nm: EB 2.3 μM, CT-DNA 26 μM, complex 0–600 μM; for apparent binding constant K app: EB displacement
Protocol: The DNA-complex binding properties can also be studied by fluorescent spectroscopy can also be studied by fluorescent spectroscopy. ,– EB emits intense fluorescence in the presence of DNA due to its strong intercalation between adjacent DNA base pairs. As EB binds to DNA […], its displacement by a compound could indicate either intercalative binding or minor groove interaction, among other possibilities. ,– The emission spectra of the CT-DNA-EB complex were recorded in both the absence and presence of compounds 1–5 (Figure S29). The fluorescence intensity at λmax ^em = 588 nm was quenched by 60.2 (1). 58.5 (2), 62.0 (3), 61.9 (4) and 61.6 (5) %, for 1–5 respectively, compared to the initial fluorescence intensity of the EB-DNA solution.
The fluorescence spectroscopy method using EB was employed to determine the relative DNA binding properties of complexes 1–5 into CT-DNA. The emission spectra at 588 nm of EB (2.3 μM) solutions which contain CT-DNA (26 μM) in the absence or presence of various concentrations of complexes 1–5 (0–600 μM) were recorded upon their excitation at 527 nm. ,− The apparent binding constant (K app) was calculated using the equation: KEB*[EB]=Kapp*[DNA binder] where [DNA binder] is the concentration of the complex at a 50% reduction of the fluorescence, K EB= 10^7 M^–1, and [EB] = 2.3 μM. ,−
The concentration of the drug required to achieve a 50% reduction in fluorescence is determined from the plot of I o/I versus the concentration of the complex [DNA binder], Io/I=1+KSV*[DNA binder] where I o and I represent the fluorescence intensities of CT-DNA in the absence and presence of complexes 1–5, respectively. K SV is the Stern–Volmer dynamic quenching constant and [DNA binder] is the total concentration of the quencher (complexes 1–5). ,−

Row | Compound | relative rate of apoptotic MCF-7 cells in respect to untreated control (MCF-7 cells [1]) | percentage of apoptotic cells (MCF-7 cells [1]) | Relative rate of MCF-7 cells in sub-G1 phase compared to untreated cells (MCF-7 cells [2]) | cell population in sub-G1 phase (MCF-7 cells [2]) | cell population in S phase (MCF-7 cells [2]) | percentage of fluorescence quenching (MMP) (MCF-7 cells [3]) | binding constant K b toward CT-DNA (calf thymus (CT)-DNA [4]) | percentage of hyperchromism (calf thymus (CT)-DNA [4]) | quenching of fluorescence intensity of EB-DNA at 588 nm (calf thymus (CT)-DNA [5]) | apparent binding constant K app (calf thymus (CT)-DNA [5]) | fold higher increase in MCF-7 sub-G1 population compared to the other compounds and cisplatin (MCF-7 cells [2]) | cell population in G0/G1 phase (MCF-7 cells [2])
1 | c1ccc(-c2nnc([S][Ag]([PH](c3ccccc3)(c3ccccc3)c3ccccc3)([PH](c3ccccc3)(c3ccccc3)c3ccccc3)[PH](c3ccccc3)(c3ccccc3)c3ccccc3)o2)cc1 [compound 1] | 5.13 and 5.1 | 60.0 ± 5.2% | 2.8 | 14.5% | 15.4% | 20.0% | 10.5 ± 1.8 × 10^4 M^–1 | 4.0% | 60.2% | 6.3 × 10^4 M^–1 |  | 
2 | Clc1cccc(-c2nnc([S][Ag]([PH](c3ccccc3)(c3ccccc3)c3ccccc3)([PH](c3ccccc3)(c3ccccc3)c3ccccc3)[PH](c3ccccc3)(c3ccccc3)c3ccccc3)o2)c1 [compound 5] | 5.5 | 64.3 ± 8.2% | 8.1 | 41.1% | 48.3% | 9.6% | 10.2 ± 1.1 × 10^4 M^–1 and 10.2 × 10^4 M^–1 | 1.2% | 61.6% | 6.5 × 10^4 M^–1 |  | 
3 | Clc1ccccc1-c1nnc([S][Ag]([PH](c2ccccc2)(c2ccccc2)c2ccccc2)([PH](c2ccccc2)(c2ccccc2)c2ccccc2)[PH](c2ccccc2)(c2ccccc2)c2ccccc2)o1 [compound 4] | 4.03 and 4.0 | 47.2 ± 5.6% | 2.6 |  | 26.5% | 5.1% | 7.5 ± 1.0 × 10^4 M^–1 | 8.5% | 61.9% | 6.9 × 10^4 M^–1 | 3 fold | 
4 | Fc1ccccc1-c1nnc([S][Ag]([PH](c2ccccc2)(c2ccccc2)c2ccccc2)([PH](c2ccccc2)(c2ccccc2)c2ccccc2)[PH](c2ccccc2)(c2ccccc2)c2ccccc2)o1 [compound 2] | 5.8 | 64.8 ± 2.5% | 1.7 | 8.9% |  | 20.7% | 6.3 ± 0.6 × 10^4 M^–1 | 7.6% | 58.5% | 6.7 × 10^4 M^–1 |  | 76.9%
5 | Fc1ccc(-c2nnc([S][Ag]([PH](c3ccccc3)(c3ccccc3)c3ccccc3)([PH](c3ccccc3)(c3ccccc3)c3ccccc3)[PH](c3ccccc3)(c3ccccc3)c3ccccc3)o2)cc1 [compound 3] | 4.01 and 4.0 | 46.9 ± 8.0% | 2.5 | 12.8% |  | 2.9% | 11.3 ± 1.6 × 10^4 M^–1 and 11.3 × 10^4 M^–1 | 28.0% | 62.0% | 7.0 × 10^4 M^–1 |  | 72.0%
